One data set has as its target T1, TrxR/Trx-1 (Homo sapiens, UniProt P10599).
T1 sequence (P10599 2-105 limits assumed): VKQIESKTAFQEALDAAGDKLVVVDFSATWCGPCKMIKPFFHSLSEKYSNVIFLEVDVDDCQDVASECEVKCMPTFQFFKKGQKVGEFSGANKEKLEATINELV
In words: Ellman test, inhibition of TrxR/Trx-1 activity. In kind it is biochemical. The text has this: Ellman Test—Inhibitory Effect of 6-dithio-substituted-2′-deoxyguanosine Derivative Analogues on TrxR/Trx-1 Activity
A TrxR/TR experiment based on the Ellman reaction was used to determine the inhibitory activity of candidate compounds. Ellman reaction is that 5,5′-dithiobis (2-nitrobenzoic acid) (DTNB) reacts with sulfhydryl (—SH) to form a yellow substance with absorption at 412 nm. The increase of absorption can be equivalent to the decrease of NADPH mediated by TrxR, thus further judging the activity of TrxR/Trx-1. All experiments were carried out on 96-well plates. Before the start of the enzyme reaction, five groups of corresponding test compound stock solutions with different concentrations were prepared. In the TrxR/Trx-1 reaction, a total volume per well was 60 μL, including 100 mM HEPES, 5 mM EDTA (HE buffer, pH 7.5), 1 mM NADPH, 1.0 μM TrxR, 0.8 μM Trx-1, 2.5 mg/mL bovine insulin and the required concentration of compounds to be tested. No compound to be tested was added to the control group. No compound to be tested, TrxR and Trx-1 were added in the blank group. The plate was shaken on an oscillator for 30 seconds to fully mix the reactants. After incubation at 37° C. for 30 min, 100 μL of the prepared mixture containing 6 M guanidine hydrochloride, 50 mm Tris and 10 mm DTNB was added to terminate the reaction. After 15 minutes of incubation, the absorbance was measured at 412 nm. Finally, TrxR/Trx-1 activity %=(Atest−Akb)/(Acontrol−Akb), that is, the relative percentage of TrxR/Trx-1 activity was the activity inhibited by adding 2′-deoxyguanosine derivatives relative to the activity without 2′-deoxyguanosine derivatives. The data were fitted into a concentration response curve with a variable slope, and the IC50 value was calculated from the curve.

The subject of the next data set is NCM460. Nature of the data set: MTT assay, cell growth inhibition, NCM460. The conditions noted are these: Homo sapiens, 48 hours, read-out: Tumor cell growth inhibition IC50, NCM460. In kind it is cell-based. The source says: (§1) MTT Assay—Inhibitory Effect of 6-dithio-substituted-2′-deoxyguanosine Derivatives on Tumor Cell Growth
(§2) We measured the tumor cell growth inhibitory activity of candidate compounds by MTT assay. Human tumor cells in logarithmic growth phase were digested with 0.25% pancreatin for a certain time, centrifuged, re-suspended and counted with a blood cell counting plate to prepare a cell suspension, and the cell suspension was adjusted to 1.0×10^4-1×10^5 cells/mL. The cell suspension was inoculated into a 96-well culture plate, 100 μL per well, and cultured in an incubator with saturated humidity, 37° C. and 5% CO2 for 24 hours until the cells completely adhered to the wall. The test compound was diluted to the required concentration with a complete medium, the complete medium of the 96-well culture plate inoculated with human tumor cells was sucked out, a medicament-containing medium was added, 100 μL per well, the final concentration of DMSO was less than 0.1%, and the culture plate was put in an incubator for 48 hours. 10 μl of MTT was added to each well of the 96-well plate, and the culture was continued for 4 h. The culture was stopped and the culture solution in the well was carefully sucked off. 150 μL DMSO was added to each well, and shaken at a low speed for 10 min on a shaking table, so that the crystal was fully dissolved. The absorbance of each well was measured at OD 570 nm of an enzyme-linked immunosorbent assay instrument. At the same time, zeroing wells (the culture medium, MTT, dimethyl sulfoxide) and control wells (cells, a drug dissolution medium with the same concentration, a culture solution, MTT, dimethyl sulfoxide) were set up, and the cell growth inhibitory activity was calculated with the corresponding solvents as the control. 3-6 multiple wells in each group were set up with repetition of several times. Cell viability of control=(Adrug group−Azeroing well)/(Acontrol well−Azeroing well)*100%. Drawing was drawn, the data were fitted into a concentration response curve with a variable slope, and IC50 value was calculated from the curve.
(Tetrazolium assays rely on reduction of a dye to a coloured formazan, in cell work by metabolically active cells.)

Data set [1] concerns human colon cancer cells HCT116. In words: MTT assay, tumor cell growth inhibition, HCT116. In kind it is cell-based. The settings on record: HCT-116, 48 hours.
Description: as §1, §2

The subject of data set [2] is human colon cancer cells SW620. Nature of the data set: MTT assay, tumor cell growth inhibition, SW620. The settings on record: SW-620, 48 hours. In kind it is cell-based.
Description: as §1, §2

Data set [3] has as its system human colon cancer cells HT29. In words: MTT assay, tumor cell growth inhibition, HT29. In kind it is cell-based. The settings on record: HT-29, 48 hours.
Description: as §1, §2

Data set [4] has as its system human melanoma cells A375. Nature of the data set: MTT assay, tumor cell growth inhibition, A375. The conditions noted are these: A-375, 48 hours. It is filed as cell-based.
Description: as §1, §2

Data set [5] deals with human leukemia cells K562. In words: MTT assay, tumor cell growth inhibition, K562. It is filed as cell-based. The settings on record: 48 hours.
Description: as §1, §2

Data set [6] deals with human liver cancer cells HepG2. Nature of the data set: MTT assay, tumor cell growth inhibition, HepG2. In kind it is cell-based. The settings on record: 48 hours.
Description: as §1, §2

Data set [7] deals with human non-small cell lung cancer A549. Nature of the data set: MTT assay, tumor cell growth inhibition, A549. In kind it is cell-based. The settings on record: 48 hours.
Description: as §1, §2

In data set [8] the test system is human breast cancer cells MCF7. Nature of the data set: MTT assay, tumor cell growth inhibition, MCF7. In kind it is cell-based. The settings on record: 48 hours.
Description: as §1, §2

The subject of data set [9] is human breast cancer cells Bcap37. In words: MTT assay, tumor cell growth inhibition, Bcap37. In kind it is cell-based. The conditions noted are these: 48 hours.
Description: as §1, §2

The test system of data set [10] is human colon cancer cell line HCT116 subcutaneous transplanted tumor. In words: Tumor-bearing test in nude mice, HCT116 subcutaneous transplanted tumor (tumor volume, TUNEL). In kind it is in vivo. The settings on record: HCT116 model; for Extent of apoptosis in tumor tissue (TUNEL staining, rank order): frozen tumor sections, DAPI and TUNEL, G group = blank; for Inhibitory effect on the growth of subcutaneous transplanted tumor tissue in nude mice (rank order, from slope of tumor volume): compound A 2 mg/kg first 8 times, 10 mg/kg last 4 times, others equimolar, KB = blank. The source says:
Tumor-Bearing Test in Nude Mice—Inhibitory Effect of 6-Dithio-Substituted-2′-Deoxyguanosine Derivatives on the Growth of Subcutaneous Transplanted Tumor Tissue in Nude Mice
1) Tumor-Bearing Mouse Model of Human Colon Cancer Cell Line HCT116
(§3) We took human colon cancer cell line HCT116 as the research object, and established a subcutaneous transplanted tumor model of human colon cancer in 32 immunodeficient nude mice. The 24th generation HCT116 cells in logarithmic growth phase were digested with pancreatin to prepare a single-cell suspension, and 1×10^7 cells were inoculated subcutaneously in the right armpit of male nude mice about 5 weeks old. After inoculation, cyclophosphamide (100 mg/kg) was injected intraperitoneally for two consecutive days. […] On the 20th day after colon cancer cell HCT116 was implanted subcutaneously, nude mice were divided into 7 groups by a random number table method, including a test drug group, a positive control group and a blank control group. Specifically, group A: the compound A was administrated; Group B: the compound B was administrated; Group C: the compound C was administrated; Group D: the compound D was administrated; Group E: the compound 6-thio-DG was administrated; Group F: the compound PX-12 was administrated; Group G: blank group, without administration of any compound. Except group C with 3 rats and group G with 4 rats, all other 5 groups had 5 rats, they mice were labeled and injected by tail vein once every two days for 24 days, 12 times, with the dose of compound A being 2 mg/kg for the first 8 times and 10 mg/kg for the last 4 times, and the dosages of other drugs being the same molar weights. The tumor volume was calculated by taking the length of the tumor as the longest diameter and the width as the corresponding vertical diameter, and the tumor volume V=(length×width^2) mm^3/2. 48 hours after the last treatment, blood was taken from the eyes, and then the animals were killed. Blood was centrifuged to get the supernatant, and then blood biochemical analysis was performed. Paraffin embedded sections of fixed tissues were stained with HE. The tumor mass in a frozen tissue was sectioned in a frozen state, and then stained by DAPI and TUNEL to judge the apoptosis of the tumor tissue in nude mice.

Data set [11] can be described thus: Blood biochemical analysis and HE staining of tissues in HCT116 tumor-bearing nude mice. In kind it is in vivo. The settings on record: tail vein once every two days, 12 times, blood 48 hours after the last treatment. As for the experimental part: as §3
Where [12] appears, read: tail vein once every two days for 24 days.
[13] abbreviates: Ellman reaction, 37° C. 30 min, absorbance 412 nm, read-out: IC50, inhibition of TrxR/Trx-1 activity.

SMILES strings stand for the structures. Read-outs that look alike come from different tables or passages of the source.

As for `Nc1nc(SSCc2ccc(F)cc2)c2ncn(C3C[C@H](O)[C@@H](CO)O3)c2n1` (stereo partly drawn) [B, 6-(p-fluorobenzyldithio)-2′-deoxyguanosine], the IC50 at TrxR/Trx-1 (read-out: TrxR/Trx-1 IC50) worked out at 9.78 µM. For the same compound, the IC50 with NCM460 is over 1 mM. In addition, in data set [1], the IC50 is 2.66 µM. The IC50 in [2] turned out to be 1710 nM. Also, the IC50 in data set [3] was 3.02 µM. The compound further gave an IC50 in [4] of 520 nM. This compound displayed an IC50 in data set [5] of 10.1 µM. In data set [6], this compound yielded an IC50 of under 10 µM. The IC50 in [7] was 13.5 µM. The IC50 in data set [8] stood at 15.6 µM. Also, in [9], the IC50 was 21 µM. The “Extent of apoptosis in tumor tissue (TUNEL staining, rank order)” value in data set [10] was “D group>A group≈B group≈E group (6-thio-dG group)>C group>F group (PX-12 group)>G group (KB group)”. In data set [10] (setting [12]), the “Inhibitory effect on the growth of subcutaneous transplanted tumor tissue in nude mice (rank order, from slope of tumor volume)” value is “D>B≈A≈6-thio-dG>PX-12>C>KB”. For the same compound, the “Ability to inhibit the growth of transplanted tumor tissue compared with positive controls” value in [10] (tail vein once every two days for 24 days, equimolar doses) is “close to that of the positive control 6-thio-dG and stronger than that of the positive control PX-12”. In data set [11], the Alanine aminotransferase is reported as 105.9 U/L, the Albumin worked out at 26.3 g/L, the Alkaline phosphatase is recorded as 31.0 U/L and the Aspartate aminotransferase is 254.4 U/L. Besides, in [11], the BUN is given as 14.8 mmol/L, the Chloride ion was determined as 124.0 mmol/L, the Creatine kinase is reported as 2169 U/L and the Creatinine came to 8.67 µmol/L. Moreover, in data set [11], the Glucose was 2.29 mmol/L, the Potassium ion turned out to be 6.26 mmol/L, the Sodium ion is 158.0 mmol/L and the Total bilirubin was found to be 0.90 µmol/L. Further, in data set [11], the Total cholesterol worked out at 2.76 mmol/L, the Total protein stood at 50.7 g/L and the Triglyceride worked out at 0.52 mmol/L.
For `Nc1nc(Cl)nc2c1ncn2[C@H]1C[C@H](O)[C@@H](CO)O1` [Cladribine, reference compound], the IC50 was over 100 µM at TrxR/Trx-1 (setting [13]); over 1 mM in the data set with NCM460; 28.4 µM in data set [1]; over 100000 nM in [2]; 9.44 µM in [3]; 7.86 µM in [5]. For the same compound, the IC50 in data set [8] and in data set [9] was over 100 µM in each case.
On to `CC(C)(C)SSc1nc(N)nc2c1ncn2C1C[C@H](O)[C@@H](CO)O1` (stereo partly drawn) [Compound C, 6-(tert-butyldithio)-2′-deoxyguanosine], for which, at TrxR/Trx-1 (setting [13]), the IC50 was 47.7 µM. The IC50 in the data set with NCM460 is over 1 mM. The compound also had an IC50 in [1] of 21.8 µM. This compound also displayed an IC50 in data set [3] of 7.37 µM. For the same compound, in data set [4], the IC50 was 3060 nM. The IC50 in [5] worked out at 28.7 µM. In data set [6], this compound returned an IC50 of 10 to 50 µM. In addition, in data set [7], the IC50 is 35.8 µM. The compound also showed an IC50 in data set [9] of 35.1 µM. Besides, in data set [10], the “Extent of apoptosis in tumor tissue (TUNEL staining, rank order)” value was “D group>A group≈B group≈E group (6-thio-dG group)>C group>F group (PX-12 group)>G group (KB group)”. For the same compound, the “Inhibitory effect on the growth of subcutaneous transplanted tumor tissue in nude mice (rank order, from slope of tumor volume)” value in [10] (setting [12]) is “D>B≈A≈6-thio-dG>PX-12>C>KB”. In data set [11], this compound yielded an Alanine aminotransferase of 25.5 U/L, an Albumin of 27.9 g/L, an Alkaline phosphatase of 33.7 U/L and an Aspartate aminotransferase of 128.3 U/L. In data set [11], this compound had a BUN of 9.00 mmol/L, a Chloride ion of 120.5 mmol/L, a Creatine kinase of 980.7 U/L and a Creatinine of 6.67 µmol/L. In data set [11], this compound yielded a Glucose of 2.99 mmol/L, a Potassium ion of 6.17 mmol/L, a Sodium ion of 159.0 mmol/L and a Total bilirubin of 0.80 µmol/L. In data set [11], this compound registered a Total cholesterol of 2.65 mmol/L, a Total protein of 51.6 g/L and a Triglyceride of 1.15 mmol/L.

The values above are taken from patent US11247994B2, “6-dithio-substituted-2′-deoxyguanosine compound, preparation method thereof and use thereof” (ZHEJIANG UNIVERSITY, priority 2018, dated 2022).
